Data on three molecules can be found in ChEMBL document CHEMBL6153041, “Discovery of High-Affinity SMARCA2/4 Bromodomain Ligands and Development of Potent and Exceptionally Selective SMARCA2 PROTAC Degraders” (J Med Chem, 2025).

The structures appear in SMILES notation.

In test [1] the target is T1, von Hippel-Lindau disease tumor suppressor/SWI/SNF-related matrix-associated actin-dependent regulator of chromatin subfamily A member 2 (Homo sapiens, UniProt P51531+P40337). Put plainly: PROTAC activity at VHL1/SMARCA2 in human genetically modified Hela cells assessed as maximal degradation measured after 24 hrs incubation by Nano-Glo HiBiT Lytic Detection Assay relative to control. Format: cell-based. (In general: HiBiT is a short tag that completes a luciferase, so light tracks the accessible tagged protein.)
Target sequence in this assay (P40337 whole entry, looked up): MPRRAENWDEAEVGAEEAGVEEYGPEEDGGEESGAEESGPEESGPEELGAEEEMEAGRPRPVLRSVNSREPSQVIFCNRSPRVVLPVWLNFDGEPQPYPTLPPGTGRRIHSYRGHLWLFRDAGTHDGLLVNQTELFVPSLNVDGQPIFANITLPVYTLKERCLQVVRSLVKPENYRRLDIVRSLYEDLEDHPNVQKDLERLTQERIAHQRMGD
Target sequence in this assay (P51531 whole entry, looked up): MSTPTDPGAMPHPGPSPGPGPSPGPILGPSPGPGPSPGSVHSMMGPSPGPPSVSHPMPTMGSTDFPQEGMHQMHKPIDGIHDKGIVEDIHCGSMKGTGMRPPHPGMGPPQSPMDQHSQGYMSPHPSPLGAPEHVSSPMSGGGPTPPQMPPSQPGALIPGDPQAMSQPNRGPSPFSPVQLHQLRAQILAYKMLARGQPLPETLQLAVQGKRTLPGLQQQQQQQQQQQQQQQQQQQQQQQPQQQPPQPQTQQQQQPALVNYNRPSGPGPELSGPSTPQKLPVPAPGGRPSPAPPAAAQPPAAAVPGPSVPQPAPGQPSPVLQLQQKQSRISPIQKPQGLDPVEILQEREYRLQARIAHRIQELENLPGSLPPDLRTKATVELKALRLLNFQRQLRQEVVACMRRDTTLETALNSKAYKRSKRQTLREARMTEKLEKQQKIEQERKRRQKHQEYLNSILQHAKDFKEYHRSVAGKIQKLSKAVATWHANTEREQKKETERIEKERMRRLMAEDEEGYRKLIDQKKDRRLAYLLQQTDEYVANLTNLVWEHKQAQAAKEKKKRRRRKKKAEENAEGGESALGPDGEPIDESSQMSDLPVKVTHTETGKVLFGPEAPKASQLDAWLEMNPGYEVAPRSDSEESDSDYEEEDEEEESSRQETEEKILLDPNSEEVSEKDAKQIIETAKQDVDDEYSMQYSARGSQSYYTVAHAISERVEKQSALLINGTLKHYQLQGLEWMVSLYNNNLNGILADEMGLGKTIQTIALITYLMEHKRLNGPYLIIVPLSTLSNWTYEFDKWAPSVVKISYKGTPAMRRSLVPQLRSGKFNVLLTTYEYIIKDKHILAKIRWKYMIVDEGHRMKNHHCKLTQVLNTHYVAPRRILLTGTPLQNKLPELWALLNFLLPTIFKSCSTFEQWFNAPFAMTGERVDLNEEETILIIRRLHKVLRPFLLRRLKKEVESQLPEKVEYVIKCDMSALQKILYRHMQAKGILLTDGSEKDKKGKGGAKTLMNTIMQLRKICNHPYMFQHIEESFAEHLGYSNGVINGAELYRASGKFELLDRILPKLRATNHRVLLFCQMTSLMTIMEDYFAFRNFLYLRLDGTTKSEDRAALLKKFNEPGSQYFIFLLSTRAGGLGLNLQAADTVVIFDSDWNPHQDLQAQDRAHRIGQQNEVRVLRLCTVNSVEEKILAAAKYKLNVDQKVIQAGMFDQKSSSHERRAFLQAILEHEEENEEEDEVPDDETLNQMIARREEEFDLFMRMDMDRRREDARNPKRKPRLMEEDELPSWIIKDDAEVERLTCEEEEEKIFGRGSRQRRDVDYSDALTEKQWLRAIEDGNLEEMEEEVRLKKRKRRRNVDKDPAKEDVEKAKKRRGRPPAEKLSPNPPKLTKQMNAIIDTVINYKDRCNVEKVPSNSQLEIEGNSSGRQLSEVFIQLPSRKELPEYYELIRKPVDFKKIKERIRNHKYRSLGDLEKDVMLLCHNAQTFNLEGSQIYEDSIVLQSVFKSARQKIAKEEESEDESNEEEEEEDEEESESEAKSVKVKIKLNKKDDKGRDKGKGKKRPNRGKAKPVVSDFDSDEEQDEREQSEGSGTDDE

In test [2] the target is T2, von Hippel-Lindau disease tumor suppressor/SWI/SNF-related matrix-associated actin-dependent regulator of chromatin subfamily A member 4 (Homo sapiens, UniProt P51532+P40337). Briefly: PROTAC activity at VHL1/SMARCA4 in human genetically modified Hela cells assessed as degradation measured after 24 hrs incubation by Nano-Glo HiBiT Lytic Detection Assay. The class given is cell-based.

The target of test [3] is T3, Protein cereblon/SWI/SNF-related matrix-associated actin-dependent regulator of chromatin subfamily A member 2 (Homo sapiens, UniProt P51531+Q96SW2). Briefly: PROTAC activity at CRBN/SMARCA2 in human RKO cells assessed as maximal degradation measured after 24 hrs by Western blot analysis relative to control. The class given is cell-based. Background: Immunoblotting shows a protein as a band on a membrane.

Test [4] has as its target T4, Protein cereblon/SWI/SNF-related matrix-associated actin-dependent regulator of chromatin subfamily A member 4 (Homo sapiens) (UniProt P51532+Q96SW2). Briefly: PROTAC activity at CRBN/SMARCA4 in human RKO cells assessed as degradation measured after 24 hrs by Western blot analysis. Format: cell-based.
Test [5] has as its target T1, von Hippel-Lindau disease tumor suppressor/SWI/SNF-related matrix-associated actin-dependent regulator of chromatin subfamily A member 2. Briefly: PROTAC activity at VHL1/SMARCA2 in human genetically modified Hela cells assessed as degradation measured after 24 hrs incubation by Nano-Glo HiBiT Lytic Detection Assay. The class given is cell-based.
The target of test [6] is T4, Protein cereblon/SWI/SNF-related matrix-associated actin-dependent regulator of chromatin subfamily A member 4 (Homo sapiens). Briefly: PROTAC activity at CRBN/SMARCA4 in human RKO cells assessed as maximal degradation measured after 24 hrs by Western blot analysis relative to control. The class given is cell-based.
Test [7] addresses T3, Protein cereblon/SWI/SNF-related matrix-associated actin-dependent regulator of chromatin subfamily A member 2. Put plainly: PROTAC activity at CRBN/SMARCA2 in human RKO cells assessed as degradation measured after 24 hrs by Western blot analysis. The class given is cell-based.
A further test has as its system HeLa. Briefly: Selectivity ratio, ratio of DC50 for VHL1/SMARCA4 in human genetically modified Hela cells to VHL1/SMARCA2 in human genetically modified Hela cells. Format: cell-based.
The target in test [8] is T2, von Hippel-Lindau disease tumor suppressor/SWI/SNF-related matrix-associated actin-dependent regulator of chromatin subfamily A member 4. Put plainly: PROTAC activity at VHL1/SMARCA4 in human genetically modified Hela cells assessed as maximal degradation measured after 24 hrs incubation by Nano-Glo HiBiT Lytic Detection Assay relative to control. The class given is cell-based.
Target sequence in this assay (P40337 whole entry, looked up): as the sequence (P40337 whole entry, looked up) above
Target sequence in this assay (P51532 whole entry, looked up): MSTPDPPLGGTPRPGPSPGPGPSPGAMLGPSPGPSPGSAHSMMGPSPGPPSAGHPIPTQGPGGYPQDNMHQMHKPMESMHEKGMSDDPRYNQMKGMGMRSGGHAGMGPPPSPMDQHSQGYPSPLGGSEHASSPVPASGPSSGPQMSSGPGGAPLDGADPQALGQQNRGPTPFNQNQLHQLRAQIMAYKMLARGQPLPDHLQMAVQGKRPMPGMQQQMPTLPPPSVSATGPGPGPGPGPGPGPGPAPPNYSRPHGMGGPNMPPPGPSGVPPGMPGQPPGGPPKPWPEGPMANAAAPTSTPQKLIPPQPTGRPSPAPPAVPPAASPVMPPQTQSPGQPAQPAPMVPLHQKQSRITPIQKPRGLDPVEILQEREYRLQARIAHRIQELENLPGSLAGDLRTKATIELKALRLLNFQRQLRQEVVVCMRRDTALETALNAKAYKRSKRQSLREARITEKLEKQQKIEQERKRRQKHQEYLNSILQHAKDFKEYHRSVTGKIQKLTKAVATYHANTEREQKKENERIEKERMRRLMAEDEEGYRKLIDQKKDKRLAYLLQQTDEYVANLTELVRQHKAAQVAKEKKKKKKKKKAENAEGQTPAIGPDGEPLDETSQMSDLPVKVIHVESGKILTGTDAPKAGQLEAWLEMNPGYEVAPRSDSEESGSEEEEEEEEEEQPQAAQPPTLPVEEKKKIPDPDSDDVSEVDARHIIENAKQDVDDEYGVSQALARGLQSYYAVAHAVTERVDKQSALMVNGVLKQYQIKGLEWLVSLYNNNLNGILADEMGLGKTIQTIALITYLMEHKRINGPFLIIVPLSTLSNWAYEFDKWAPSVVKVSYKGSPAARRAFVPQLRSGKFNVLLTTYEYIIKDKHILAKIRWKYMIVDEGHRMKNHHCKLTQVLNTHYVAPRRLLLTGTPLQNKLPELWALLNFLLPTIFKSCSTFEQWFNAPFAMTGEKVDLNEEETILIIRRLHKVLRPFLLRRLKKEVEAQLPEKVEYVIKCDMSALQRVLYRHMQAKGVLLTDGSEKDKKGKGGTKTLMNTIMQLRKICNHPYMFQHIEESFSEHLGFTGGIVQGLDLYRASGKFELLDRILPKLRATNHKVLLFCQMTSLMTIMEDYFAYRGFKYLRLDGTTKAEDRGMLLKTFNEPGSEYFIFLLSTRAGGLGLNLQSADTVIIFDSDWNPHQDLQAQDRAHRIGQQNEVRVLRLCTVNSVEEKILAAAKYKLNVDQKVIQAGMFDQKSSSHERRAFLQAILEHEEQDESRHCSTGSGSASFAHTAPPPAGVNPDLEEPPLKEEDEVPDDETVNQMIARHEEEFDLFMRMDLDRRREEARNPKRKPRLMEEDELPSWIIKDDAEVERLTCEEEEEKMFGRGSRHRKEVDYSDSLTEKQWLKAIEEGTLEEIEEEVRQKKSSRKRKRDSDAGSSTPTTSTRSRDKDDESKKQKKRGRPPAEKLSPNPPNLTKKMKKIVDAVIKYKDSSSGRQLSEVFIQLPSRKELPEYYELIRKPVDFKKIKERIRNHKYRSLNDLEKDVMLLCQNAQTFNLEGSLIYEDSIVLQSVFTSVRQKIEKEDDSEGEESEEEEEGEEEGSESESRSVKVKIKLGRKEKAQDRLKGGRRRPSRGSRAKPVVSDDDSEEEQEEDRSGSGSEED

For test [9], the system named is SK-MEL-5. Put plainly: Anticancer activity against SMARCA4 deficient human SK-MEL-5 cells assessed as maximal inhibition of cell growth measured after 7 days incubation by WST-8 assay relative to control. The class given is functional. Conditions: time 7 day.
A short description of test [10]: Anticancer activity against SMARCA4 deficient human NCI-H838 cells assessed as inhibition of cell growth measured after 7 days incubation by WST-8 assay. Conditions: NCI-H838, 168 h, time 7 day. The class given is functional. (Tetrazolium dyes change colour on reduction, which living cells bring about.)
Test [11] deals with SK-MEL-5. Put plainly: Anticancer activity against SMARCA4 deficient human SK-MEL-5 cells assessed as inhibition of cell growth measured after 7 days incubation by WST-8 assay. Format: functional. Conditions: SK-MEL-5, 168 h, time 7 day.
Test [12] deals with T1, von Hippel-Lindau disease tumor suppressor/SWI/SNF-related matrix-associated actin-dependent regulator of chromatin subfamily A member 2. Briefly: PROTAC activity at VHL1/SMARCA2 in human genetically modified Hela cells assessed as maximal degradation measured after 48 hrs incubation by Nano-Glo HiBiT Lytic Detection Assay relative to control. Format: cell-based.
Target sequence in this assay (P40337 whole entry, looked up): as the sequence (P40337 whole entry, looked up) above
Target sequence in this assay (P51531 whole entry, looked up): as the sequence (P51531 whole entry, looked up) above
Test [13] deals with T2, von Hippel-Lindau disease tumor suppressor/SWI/SNF-related matrix-associated actin-dependent regulator of chromatin subfamily A member 4. Put plainly: PROTAC activity at VHL1/SMARCA4 in human genetically modified Hela cells assessed as maximal degradation measured after 8 hrs incubation by Nano-Glo HiBiT Lytic Detection Assay relative to control. Format: cell-based.
Target sequence in this assay (P40337 whole entry, looked up): as the sequence (P40337 whole entry, looked up) above
Target sequence in this assay (P51532 whole entry, looked up): as the sequence (P51532 whole entry, looked up) above
For test [14] the target is unchanged. Put plainly: PROTAC activity at VHL1/SMARCA4 in human genetically modified Hela cells assessed as degradation measured after 48 hrs incubation by Nano-Glo HiBiT Lytic Detection Assay. The class given is cell-based.
Test [15] concerns NCI-H1792. Put plainly: Anticancer activity against human NCI-H1792 cells harbouring wild type SMARCA4 assessed as inhibition of cell growth measured after 7 days incubation by WST-8 assay. Format: functional. To be noted: NCI-H1792, 168 h, time 7 day.
The target in test [16] is T2, von Hippel-Lindau disease tumor suppressor/SWI/SNF-related matrix-associated actin-dependent regulator of chromatin subfamily A member 4. Briefly: PROTAC activity at VHL1/SMARCA4 in human NCI-H1792 cells assessed as maximal degradation measured after 24 hrs incubation by Western blot analysis relative to control. Format: cell-based.
Target sequence in this assay (P40337 whole entry, looked up): as the sequence (P40337 whole entry, looked up) above
Target sequence in this assay (P51532 whole entry, looked up): as the sequence (P51532 whole entry, looked up) above
Test [17] deals with T1, von Hippel-Lindau disease tumor suppressor/SWI/SNF-related matrix-associated actin-dependent regulator of chromatin subfamily A member 2. Put plainly: PROTAC activity at VHL1/SMARCA2 in human genetically modified Hela cells assessed as maximal degradation measured after 8 hrs incubation by Nano-Glo HiBiT Lytic Detection Assay relative to control. The class given is cell-based.
Target sequence in this assay (P40337 whole entry, looked up): as the sequence (P40337 whole entry, looked up) above
Target sequence in this assay (P51531 whole entry, looked up): as the sequence (P51531 whole entry, looked up) above

The target is the same in test [18]. Put plainly: PROTAC activity at VHL1/SMARCA2 in human genetically modified Hela cells assessed as degradation measured after 8 hrs incubation by Nano-Glo HiBiT Lytic Detection Assay. The class given is cell-based.
Test [19] deals with T2, von Hippel-Lindau disease tumor suppressor/SWI/SNF-related matrix-associated actin-dependent regulator of chromatin subfamily A member 4. Briefly: PROTAC activity at VHL1/SMARCA4 mutant in human SK-MEL-5 cells assessed as degradation measured after 24 hrs incubation by Western blot analysis. Format: cell-based.
Test [20] deals with T1, von Hippel-Lindau disease tumor suppressor/SWI/SNF-related matrix-associated actin-dependent regulator of chromatin subfamily A member 2. Briefly: PROTAC activity at VHL1/SMARCA2 in human genetically modified Hela cells assessed as degradation measured after 48 hrs incubation by Nano-Glo HiBiT Lytic Detection Assay. The class given is cell-based.
For test [21] the target is unchanged. Put plainly: PROTAC activity at VHL1/SMARCA2 in human genetically modified Hela cells assessed as maximal degradation measured after 4 hrs incubation by Nano-Glo HiBiT Lytic Detection Assay relative to control. The class given is cell-based.
Target sequence in this assay (P40337 whole entry, looked up): as the sequence (P40337 whole entry, looked up) above
Target sequence in this assay (P51531 whole entry, looked up): as the sequence (P51531 whole entry, looked up) above
A short description of test [22]: Anticancer activity against SMARCA4 deficient human NCI-H838 cells assessed as maximal inhibition of cell growth measured after 7 days incubation by WST-8 assay relative to control. Format: functional. Conditions: time 7 day.
The target in test [23] is T1, von Hippel-Lindau disease tumor suppressor/SWI/SNF-related matrix-associated actin-dependent regulator of chromatin subfamily A member 2. Put plainly: PROTAC activity at VHL1/SMARCA2 in human NCI-H1792 cells assessed as maximal degradation measured after 24 hrs incubation by Western blot analysis relative to control. The class given is cell-based.
Target sequence in this assay (P40337 whole entry, looked up): as the sequence (P40337 whole entry, looked up) above
Target sequence in this assay (P51531 whole entry, looked up): as the sequence (P51531 whole entry, looked up) above
Test [24] deals with von Hippel-Lindau disease tumor suppressor/SWI/SNF-related matrix-associated actin-dependent regulator of chromatin subfamily A member 4 (Homo sapiens), P51532+P40337 [UNDEFINED MUTATION]. Put plainly: PROTAC activity at VHL1/SMARCA4 mutant in human SK-MEL-5 cells assessed as maximal degradation measured after 24 hrs incubation by Western blot analysis relative to control. The class given is cell-based.

Test [25] concerns the target T2, von Hippel-Lindau disease tumor suppressor/SWI/SNF-related matrix-associated actin-dependent regulator of chromatin subfamily A member 4. Briefly: PROTAC activity at VHL1/SMARCA4 in human genetically modified Hela cells assessed as maximal degradation measured after 4 hrs incubation by Nano-Glo HiBiT Lytic Detection Assay relative to control. The class given is cell-based.
Target sequence in this assay (P40337 whole entry, looked up): as the sequence (P40337 whole entry, looked up) above
Target sequence in this assay (P51532 whole entry, looked up): as the sequence (P51532 whole entry, looked up) above

For test [26], the target named is T1, von Hippel-Lindau disease tumor suppressor/SWI/SNF-related matrix-associated actin-dependent regulator of chromatin subfamily A member 2. Briefly: PROTAC activity at VHL1/SMARCA2 in human genetically modified Hela cells assessed as degradation measured after 4 hrs incubation by Nano-Glo HiBiT Lytic Detection Assay. The class given is cell-based.
Test [27] has the same target. Put plainly: PROTAC activity at VHL1/SMARCA2 in human NCI-H1792 cells assessed as degradation measured after 24 hrs incubation by Western blot analysis. Format: cell-based.
Test [28] deals with SK-MEL-28. Briefly: Anticancer activity against human SK-MEL-28 cells harbouring wild type SMARCA4 assessed as inhibition of cell growth measured after 7 days incubation by WST-8 assay. Format: functional. To be noted: SK-MEL-28, 168 h, time 7 day.
The subject of test [29] is NCI-H1792. Put plainly: Anticancer activity against human NCI-H1792 cells harbouring wild type SMARCA4 assessed as maximal inhibition of cell growth measured after 7 days incubation by WST-8 assay relative to control. Format: functional. Conditions: time 7 day.
Test [30] concerns von Hippel-Lindau disease tumor suppressor/SWI/SNF-related matrix-associated actin-dependent regulator of chromatin subfamily A member 4 (Homo sapiens), P51532+P40337 [UNDEFINED MUTATION]. Briefly: PROTAC activity at VHL1/SMARCA4 mutant in human NCI-H838 cells assessed as maximal degradation measured after 24 hrs incubation by Western blot analysis relative to control. The class given is cell-based.

Test [31] has as its target T2, von Hippel-Lindau disease tumor suppressor/SWI/SNF-related matrix-associated actin-dependent regulator of chromatin subfamily A member 4. Briefly: PROTAC activity at VHL1/SMARCA4 in human genetically modified Hela cells assessed as maximal degradation measured after 48 hrs incubation by Nano-Glo HiBiT Lytic Detection Assay relative to control. The class given is cell-based.
Target sequence in this assay (P40337 whole entry, looked up): as the sequence (P40337 whole entry, looked up) above
Target sequence in this assay (P51532 whole entry, looked up): as the sequence (P51532 whole entry, looked up) above

Test [32] concerns SK-MEL-28. Briefly: Anticancer activity against human SK-MEL-28 cells harbouring wild type SMARCA4 assessed as maximal inhibition of cell growth measured after 7 days incubation by WST-8 assay relative to control. The class given is functional. To be noted: time 7 day.
For test [33], the target named is T2, von Hippel-Lindau disease tumor suppressor/SWI/SNF-related matrix-associated actin-dependent regulator of chromatin subfamily A member 4. Put plainly: PROTAC activity at VHL1/SMARCA4 in human NCI-H1792 cells assessed as degradation measured after 24 hrs incubation by Western blot analysis. Format: cell-based.
Test [34] has the same target. Put plainly: PROTAC activity at VHL1/SMARCA4 in human genetically modified Hela cells assessed as degradation measured after 4 hrs incubation by Nano-Glo HiBiT Lytic Detection Assay. The class given is cell-based.
The target is the same in test [35]. Briefly: PROTAC activity at VHL1/SMARCA4 mutant in human NCI-H838 cells assessed as degradation measured after 24 hrs incubation by Western blot analysis. The class given is cell-based.
Test [36] shares this target. Briefly: PROTAC activity at VHL1/SMARCA4 in human genetically modified Hela cells assessed as degradation measured after 8 hrs incubation by Nano-Glo HiBiT Lytic Detection Assay. Format: cell-based.

Take `Cc1ncsc1-c1ccc([C@H](CC[C@H](C)CCN2CCC(c3ccc4c(c3)n(C3CCCC3)c3nc(=O)c5c(Br)cccc5n43)CC2)NC(=O)[C@@H]2C[C@@H](O)CN2C(=O)[C@@H](NC(=O)C2(F)CC2)C(C)(C)C)cc1`: the Emax worked out at 93% in test [1], 81% in [4], 67% in test [6] and 86% in test [8]. For the same molecule, the DC50 was 33 nM in test [2], 32 nM in test [3], 2.3 nM in test [5] and 1 nM in test [7]. Besides, the Ratio in the test on HeLa stood at 12.

With `Cc1ncsc1-c1ccc([C@H](C)NC(=O)[C@@H]2C[C@@H](O)CN2C(=O)[C@@H](NC(=O)[C@H]2CC[C@H](CN3CCC(c4ccc5c(c4)-n4c(nc(=O)c6c(Cl)cccc64)C54CCCCC4)CC3)CC2)C(C)(C)C)cc1`, the Imax with SK-MEL-5 [9] came out at 93%; in [22], 79%; in the test on NCI-H1792 [29] it was 0%; with SK-MEL-28 [32], 0%. Moreover, the GI50 in test [10] was 142 nM; with SK-MEL-5 [11], over 22.3 nM; in the test with NCI-H1792 [15], over 1000 nM; in the test with SK-MEL-28 [28], over 1000 nM. In addition, the Emax in test [12] is 91%; in test [13], under 10%; in test [16] it was under 30%; in test [17], 85%; in test [1], 89%; in [21] it was 76%. Besides, the Emax was 87% in test [23]; 87% in [24]; under 10% in test [25]; under 89% in test [30]; under 10% in test [31]; 20% in test [8]. The DC50 in test [14] is over 1000 nM; in test [18] it was 89 nM; in test [19], 81.1 nM; in [2], over 10000 nM; in test [20], 44 nM; in [26], 142 nM. Besides, the DC50 was 54.2 nM in test [27]; over 1000 nM in test [33]; over 1000 nM in test [34]; 76.2 nM in test [35]; over 1000 nM in test [36]. Further, in the test on HeLa, the Ratio was over 1250.

Consider `Cc1ncsc1-c1ccc([C@H](C)NC(=O)[C@@H]2C[C@@H](O)CN2C(=O)[C@@H](NC(=O)CCCCN2CCC(c3ccc4c(c3)C3(CCCCC3)c3nc(=O)c5c(Cl)cccc5n3-4)CC2)C(C)(C)C)cc1`, for which the Emax was 88% in [1] and over 39% in test [8]. Moreover, the DC50 in [2] was over 10000 nM; in test [5] it was 105 nM. The Ratio with HeLa was over 950.

A word on the Emax: it is the maximal effect, on the per cent scale that the assay sets. The DC50 is the concentration at which degradation of the target reaches its halfway point. What is called GI50 is the concentration giving 50% growth inhibition.
